From ChEMBL document CHEMBL1201862, “PubChem BioAssay data set” (2004)
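Assay format: 96-well plates, 48-hour exposure. The concentration for 50% growth inhibition is given as GI50.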 Calls of active or inactive are those of the source. No stated cut-off is given here; in the data, active = GI50 up to about 1.1 µM and inactive = higher.

How the values were obtained:
Assay in all cases: growth of human tumour cells (NCI), 48 h
[1] = system: A549
[2] = system: COLO 205
[3] = system: DU-145
[4] = system: HCC 2998
[5] = system: HCT-15
[6] = system: HOP-62
[7] = system: HOP-92
[8] = system: Hs-578T
[9] = system: MCF7
[10] = system: MDA-MB-435
[11] = system: MDA-N
[12] = system: NCI/ADR-RES
[13] = system: RXF 393
[14] = system: T47D
[15] = system: UO-31
[16] = system: OVCAR-4
[17] = system: PC-3
[18] = system: MDA-MB-231

Measured: GI50

O=C(C/C=C/c1ccccc1)c1ccccc1
18.8 µM: [5]
inactive: [1] 10.8 µM | [2] 22.5 µM | [3] 16 µM | [4] 18.3 µM | [6] 26.9 µM | [7] 29 µM | [8] 21.8 µM | [9] 15 µM | [10] 18 µM | [11] 19.8 µM | [12] 15.3 µM | [13] 15.8 µM | [14] 16.9 µM | [15] 14.1 µM

Nc1ccc(C2NC(=O)Cc3c2ccc2ccccc32)cc1 (configuration not stated)
84.1 µM: [5]
inactive: [1] 33.2 µM | [2] 76.2 µM | [3] > 100 µM | [4] 69 µM | [6] 56.2 µM | [7] > 100 µM | [8] 46.5 µM | [9] 76 µM | [10] 68.5 µM | [11] 67.5 µM | [16] 40.3 µM | [17] 45.8 µM | [14] 34.1 µM | [15] 32.1 µM

O=C1CCCSC(=O)N1Cc1ccccc1
inactive: [1] > 100 µM | [2] > 100 µM | [3] > 100 µM | [4] > 100 µM | [6] > 100 µM | [7] > 100 µM | [8] > 100 µM | [9] > 100 µM | [18] > 100 µM | [10] > 100 µM | [11] > 100 µM | [12] > 100 µM | [16] > 100 µM | [17] > 100 µM | [13] > 100 µM | [14] > 100 µM
> 100 µM: [5]

COc1ccc(/C=C2/SC(c3c(O)ccc4ccccc34)N(NC(=O)CCCCCCCCC(=O)NN3C(=O)/C(=C\c4ccc(OC)c(OC)c4)SC3c3c(O)ccc4ccccc34)C2=O)cc1OC (configuration not stated)
0.871 µM: [5]
inactive: [1] 1.44 µM | [2] 3.15 µM | [3] 1.61 µM | [4] 5.25 µM | [9] 1.71 µM | [10] 11.3 µM | [11] 12.8 µM | [12] 1.77 µM | [16] 1.64 µM | [17] 1.48 µM | [13] 3.56 µM | [14] 2.19 µM
active: [6] 0.65 µM | [7] 1.09 µM | [15] 0.486 µM

CCOC(=O)c1csc(NC(=O)C(C)N2CCCC2)n1 (configuration not stated)
> 100 µM: [5]
inactive: [1] > 100 µM | [2] > 100 µM | [3] > 100 µM | [4] > 100 µM | [6] > 100 µM | [7] > 100 µM | [9] > 100 µM | [18] > 100 µM | [10] > 100 µM | [11] > 100 µM | [16] > 100 µM | [17] > 100 µM | [13] > 100 µM | [14] > 100 µM | [15] > 100 µM

C/C(Cl)=N\OC(=O)Nc1ccccc1C(F)(F)F
inactive: [1] > 100 µM | [2] 21.6 µM | [3] > 100 µM | [4] > 100 µM | [7] 6.61 µM | [8] > 100 µM | [9] 14.9 µM | [18] 22.6 µM | [11] 16.4 µM | [12] 19.3 µM | [16] 13.8 µM | [17] > 100 µM | [14] 80.2 µM | [15] 64.9 µM
> 100 µM: [5]

CC(=O)O/N=C/c1c2ccccc2cc2ccccc12
56.1 µM: [5]
inactive: [1] 47.9 µM | [2] > 100 µM | [3] > 100 µM | [6] 30 µM | [7] > 100 µM | [8] 67.1 µM | [9] 78.2 µM | [18] 20.9 µM | [10] 38 µM | [12] 56.8 µM | [17] > 100 µM | [13] 21.7 µM | [14] 81.7 µM | [15] 36.2 µM

O=c1cc(-c2ccccc2)nc2[nH]ccn12
inactive: [1] > 10 µM | [2] > 10 µM | [3] > 10 µM | [4] > 10 µM | [6] > 10 µM | [8] > 10 µM | [9] > 10 µM | [18] > 10 µM | [10] > 10 µM | [11] > 10 µM | [12] > 10 µM | [16] > 10 µM | [17] > 10 µM | [13] > 10 µM | [14] > 10 µM | [15] 7.87 µM
> 10 µM: [5]

CCOC(=O)CNC(=O)C(C)NC(=O)C(NC(=O)CC(c1ncc[nH]1)c1ncc[nH]1)C(C)CC (configuration not stated)
inactive: [1] > 100 µM | [2] > 100 µM | [3] > 100 µM | [4] > 100 µM | [7] > 100 µM | [8] > 100 µM | [9] > 100 µM | [18] > 100 µM | [10] > 100 µM | [11] > 100 µM | [12] > 100 µM | [16] 63.7 µM | [14] > 100 µM | [15] > 100 µM
> 100 µM: [5]

O=C1c2cc3c(cc2CC12Cc1cc4c(cc1C2)CCC4)CCC3
inactive: [1] > 100 µM | [2] > 100 µM | [3] > 100 µM | [4] > 100 µM | [6] > 100 µM | [7] > 100 µM | [8] > 100 µM | [9] > 100 µM | [18] > 100 µM | [10] > 100 µM | [11] > 100 µM | [12] > 100 µM | [16] > 100 µM | [17] > 100 µM | [13] > 100 µM | [14] > 100 µM | [15] > 100 µM
> 100 µM: [5]

O=C(Nc1ccc(F)cc1)c1cc2c(cc1Cl)Sc1nccn1S2(=O)=O
inactive: [1] > 100 µM | [2] > 100 µM | [3] > 100 µM | [4] > 100 µM | [6] 34.8 µM | [8] 30.8 µM | [9] 77.8 µM | [18] 38.2 µM | [10] 59.4 µM | [11] > 100 µM | [12] > 100 µM | [16] 55.7 µM | [17] 90.6 µM | [13] 31.7 µM | [14] 45.9 µM
81.7 µM: [5]

O=S(OC12CC3CC(CC(C3)C1)C2)c1cc(Cl)cc(Cl)c1OCc1ccccc1 (configuration not stated)
inactive: [4] > 100 µM | [6] > 100 µM | [16] > 100 µM | [13] > 100 µM | [15] > 100 µM

CC(=O)NC1CC2Oc3ccc(C)cc3C(C)(O2)C1O (configuration not stated)
inactive: [1] > 100 µM | [2] > 100 µM | [6] > 100 µM | [13] > 100 µM | [15] > 100 µM
> 100 µM: [5]

O=C(c1ccc2ccccc2c1O)N1CCCCC1
> 100 µM: [5]
inactive: [2] > 100 µM | [3] > 100 µM | [4] > 100 µM | [6] > 100 µM | [7] 78.9 µM | [8] > 100 µM | [9] > 100 µM | [18] > 100 µM | [10] > 100 µM | [12] 39 µM | [16] > 100 µM | [17] > 100 µM | [13] > 100 µM | [14] 71.3 µM | [15] > 100 µM
